From patent US20250152545A1, “NOVEL ANTIVIRAL COMPOSITIONS COMPRISING OLEIC ACID” (SUBINTRO LIMITED, priority 2021, published 2025) come the findings set out here.

Assay type in all cases: cell-based
The subject of assay [1] is SARS-COV-2 (strain BetaCoV/France/IDF0571/2020). As to the kind of experiment: SARS-COV-2 viral load in apical wash of infected ALI cultured human nasal epithelium (RT-PCR). The following applies: apical treatment; apilimod (as mesylate) 2 mg/ml 50 uL and/or surfactants 0.15% w/w polysorbate 80 + 0.2% w/w oleic acid; apical wash 48 hrs post inoculation; MOI 0.1. An excerpt:
Primary human nasal, trachea, and bronchial epithelial cells can be cultured and differentiated at an air-liquid interface (ALI), forming a pseudostratified mucociliary airway epithelium that is composed of ciliated cells, goblet cells, club cells, and basal cells with an arrangement closely reflective of an in vivo cellular organization. This in vitro model of human airway epithelium (HAE) cultured at an ALI (HAE-ALI) closely recapitulates many important characteristics of respiratory virus-host cell interactions seen in the infected upper and lower airways in vivo and has been used to study many human respiratory viruses, including SARS-COV-2. […]
Virus load was quantified by RT-PCR as reported by Pizzorno et al. (Cell Rep Med. 1 (4): 100059, 2020). […] Viral RNA will be quantified by RT-qPCR (Express One-Step Superscript™ qRT-PCR kit, Invitrogen). SARS-COV-2-specific primer and probes used for viral genome quantification as follows: Target: ORF1b-nsp14 Forward primer (HKU-ORF1b-nsp14F) 5′-[…]-3′ Reverse primer (HKU-ORF1b-nsp14R) 5′-[…]-3′ Probe (HKU-ORF1b-nsp141P) 5′-FAM-[…]-TAMRA-3′. Ct data were determined and relative changes in gene expression were calculated using the […] and shown as the fold reduction of genome copy number (ORF1b-nsp14 gene of SARS-COV-2) relative to the mean of vehicle treated infected control.

Assay [2] has as its system SARS-COV-2 infected ALI cultured human nasal epithelium. The note with it: apical treatment, apilimod (as mesylate) 2 mg/ml 50 uL; 48 hrs post virus inoculation.
Assay [3] relates to H1N1 (strain A/Switzerland/7717739/2013).

Structures are written as SMILES.

Take `Cc1cccc(/C=N/Nc2cc(N3CCOCC3)nc(OCCc3ccccn3)n2)c1` [apilimod]: in assay [1], the “reduction of viral load (genome copy number, ORF1b-nsp14) compared with virus infection control” value came to 0.1 log. For the same compound, in assay [2], the “inhibition of virus-induced reduction in TEER” value came to 48%.
As to `CCC(CC)O[C@@H]1C=C(C(=O)O)C[C@H](N)[C@H]1NC(C)=O` [oseltamivir carboxylate], the “reduction of viral load (assay control)” value in assay [3] (10 µM in a basal chamber, Day 0, 24 hrs post inoculation) is 1.7 log. The “reduction of viral load (genome copy number) compared with virus infection control” value in assay [3] (apical treatment, oseltamivir carboxylate 1 μM and/or surfactants 0.15% polysorbate 80 + 0.2% oleic acid, apical wash 24 hrs post inoculation) was found to be 1.0 log.
